Source: PubChem BioAssay (NCI)
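1) Cells in 96-well plates. 2) Compound, 48 h, 5 concentrations. 3) Linear interpolation between surrounding doses. 4) Unreached endpoint = highest concentration. GI50 marks 50% less growth. The concentration for full growth arrest is given as TGI.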

Tested on: OVCAR-8 ovarian
Assay: NCI tumour cell line growth inhibition, 48 h

Row | Structure (SMILES) | GI50 [µM] | TGI [µM]
1 | c1cc[c]([Sn]([S]c2cccc3cccnc23)([c]2ccccc2)[c]2ccccc2)cc1 | 0.0387 | 0.255
2 | CNC(=O)c1ccc(-c2cnc3ncc(Cc4ccc5ncccc5c4)n3n2)cc1F | 52.4 | > 100
3 | O=C1CCn2c([nH]c3cccc4cccc2c43)=N1 |  | > 100
4 | CCOc1cccc2nc3cccc(C(=O)NCCN(C)C)c3nc12 |  | > 20.4
5 | Cc1cc(C)nc(NS(=O)(=O)c2ccc(Nc3c4ccccc4nc4c(C(=O)N5CCN(CCOS(C)(=O)=O)CC5)ccc(Cl)c34)cc2)n1 |  | > 100
6 | Clc1cc(Cl)c2c(Cl)cc(Cl)c3c2c1N=S=N3 |  | > 100
7 | CC(=O)OCCOCBr |  | > 100
8 | O=C1c2ccccc2-c2c1c1ccccc1c(=O)n2CCNCCCNCCn1c2c(c3ccccc3c1=O)C(=O)c1ccccc1-2 | 0.0101 | 0.361
9 | CC(O)CN1C(=O)NC(Cc2ccccc2)C1=O (configuration not stated) |  | > 100
10 | O=C(c1ccccc1)[C@H]1Nc2cnccc2C2c3ccccc3CC21 (some centres not stated) |  | 33.9
11 | CN(C)c1nc(-c2cccs2)n2nc(-c3ccc(Cl)cc3)cc2n1 | 3.59 | > 100
12 | COc1ccc(C(=O)C(C(=O)CCC(=O)Nc2cccc(C(F)(F)F)c2)c2ccccc2)cc1 (configuration not stated) |  | > 100
13 | NC1=NC(=O)C(CC(=O)Nc2ccc([N+](=O)[O-])cc2[N+](=O)[O-])S1 (configuration not stated) |  | > 100
14 | O=C1c2ccccc2-c2cccc3ccc(Cc4ccccc4)c1c23 |  | > 100
15 | COC(=O)/C(=N\NC(=S)NN)C(C(=O)C(=O)Nc1ccccc1C(N)=O)c1nc2ccccc2[nH]c1=O (configuration not stated) |  | > 100
16 | CC/C=C\C/C=C\C1CC(=O)NCCCNCCCCN1 (configuration not stated) |  | > 100
17 | CC1CCCC(C(=O)/C(=C/c2cccc(Cl)c2)C(=O)C(=O)O)C1 (configuration not stated) |  | 40
18 | CC(=O)c1c(C)n([O-])c2cc(C)c(C)cc2[n+]1=O |  | > 100
19 | N#CC(C#N)=Cc1cccc(Oc2ccccc2)c1 |  | > 31.6
20 | Cc1ncc([N+](=O)[O-])n1CCNC(=O)CCCCn1ccnc1[N+](=O)[O-] |  | > 100
21 | COc1ccc(/C=C/C(=O)c2sc(-n3nc(-c4ccccc4)cc3-c3ccccc3)nc2C)cc1OC |  | > 100
22 | NC(CCSCC(F)F)C(=O)O (configuration not stated) |  | > 100
23 | COC(=O)NC/C=C\c1nc(CC/C=C\C(=O)OC2CC3CC(=O)O[C@@H](/C=C/CC(C)C)C[C@@H]4CCC(C)C(C[C@@H](OC)CC(C2)O3)O4)co1 (some centres not stated) | 53 | > 100
24 | CC1(C)OC(=O)C=C([O-])O1.CC1(C)OC(=O)C=C([O-])O1.O=c1c(O)c(-c2ccc([O-])cc2[O-])oc2cc(O)cc(O)c12.[Ti+4] |  | > 100
25 | Nc1ccc(SC23CC4CC(CC(C4)C2)C3)cc1 |  | > 100
26 | CCOC(=O)[C@@H](C)C[C@H](Cc1ccccc1)NC(=O)c1csc([C@@H](C[C@H](C(C)C)N(C)C(=O)[C@@H](NC(=O)[C@H]2CCCCN2C)C(C)(C)C)OC(C)=O)n1 | < 0.00167 | > 16.7

Tested on: SN12C renal
Assay: NCI tumour cell line growth inhibition, 48 h

Row | Structure (SMILES) | TGI [µM] | GI50 [µM]
27 | CN(C)C(=S)/N=c1\ss/c(=N\S(=O)(=O)c2ccccc2)n1-c1ccccc1 | > 100 | 
28 | N#Cc1c(N)c(C(=O)O)nn(-c2cccc(C(F)(F)F)c2)c1=O | > 100 | 
29 | CCOC(=O)Cc1nc(/C(C#N)=C/c2ccco2)[nH]c(=O)c1C#N | > 100 | 
30 | CC1=Nc2c(ccc3c2C(=O)c2ccccc2C3=O)NC(c2ccncc2)C1 (configuration not stated) | > 100 | 
31 | Cc1ccc(C(=O)CC(Sc2cccc(Cl)c2Cl)c2ccc(Cl)cc2)cc1C (configuration not stated) | 32.7 | 16.1
32 | COc1cc(/C=C\c2ccc(O)cc2)cc(OC)c1OC | > 53.6 | 
33 | C=C(COC(C)=O)CC(/C=C(\C)CCC=C(C)C)OC(C)=O (configuration not stated) | > 100 | 
34 | CNC(=O)c1cn(C[C@H](F)CCc2ccc(NC(=O)Cc3cc(OC4CC(F)(F)C4)cc(C)n3)nn2)nn1 | > 100 | 
35 | COC(=O)C(Cc1ccccc1)N/C=C\C(=O)c1ccc(Cl)cc1 (configuration not stated) | 40.5 | 16.7
36 | CC1(C)CCc2cc3c(cc2O1)OCCC3=O | > 100 | 
37 | Oc1c2c(c(O)c3ccccc13)=N[C@@H](c1ccccc1)[C@H](c1ccccc1)N=2 | > 100 | 
38 | c1cc[c]([Sn]([S]c2cccc3cccnc23)([c]2ccccc2)[c]2ccccc2)cc1 | 0.161 | 0.0326
39 | CNC(=O)c1ccc(-c2cnc3ncc(Cc4ccc5ncccc5c4)n3n2)cc1F | > 100 | > 100
40 | O=C1CCn2c([nH]c3cccc4cccc2c43)=N1 | > 100 | 
41 | CCOc1cccc2nc3cccc(C(=O)NCCN(C)C)c3nc12 | 3.59 | 
42 | Cc1cc(C)nc(NS(=O)(=O)c2ccc(Nc3c4ccccc4nc4c(C(=O)N5CCN(CCOS(C)(=O)=O)CC5)ccc(Cl)c34)cc2)n1 | > 100 | 
